Test: Solubility in cosmetic solvents / macrogol formulations
Format: physicochemical
Details: typical cosmetic solvents / formulations used
Excerpt: The composition of formulations and concentration of tested compounds were based on their limited solubility. N-monosubstituted compounds 2a–2e were insoluble at desirable concentrations in the typical solvents used in cosmetic formulations such as alcohols, triacetin, surfactants, and co-surfactants. To dissolve compounds 2a and 2b before incorporation to the formulation DMSO: Tween 20 (1:9 w/w) was used, for less soluble 2c–2e it was necessary to use DMSO alone as solvent. […] Thus the detailed composition of the formulations is as follows: F1–Tween 20 43.2%, PEG-400 25%, PEG-1500 25%, Triacetin 4.8%, tested compound 2%; F2–Tween 20 43.2%, PEG-400 25%, PEG-1500 25%, DMSO 4.8%, tested compound 2%; F3–PEG-400 25%, PEG-1500 25%, DMSO 48%, tested compound 2%. Considering the disadvantages of currently reported macrogol formulations and the low concentration achieved for the tested compounds (2%), we plan to work on cosmetic emulsions containing the most promising derivatives at higher concentrations as well as required excipients including preservatives, antioxidants, etc. This research will be carried out in the near future.

CCOC(=O)CN1C(=O)/C(=C/c2ccc(OC)cc2)N(CC(=O)OCC)C1=O [Compound 3b, Diethyl 2,2′-((Z)-4-(4-methoxybenzylidene)-2,5-dioxoimidazolidine-1,3-diyl)diacetate]
solubility (in words): very good solubility
